Experimental data published in patent US10907168B2, “Jasmonic acid pathway activator” (MEDICAGO INC., priority 2015, dated 2021).

Tests used:
A. tumefaciens VirE1 = experiment: Real-time RT PCR of VirE1 transcripts in agroinfiltrated leaves; format: in vivo, Agrobacterium tumefaciens; settings: 1 mM, seven days post-treatment
Description: mRNA transcripts for C5-1 and A. tumefaciens virulence proteins VirB1 and VirE1 were assayed by real-time RT PCR using an ABI PRISM 7500 Fast real-time PCR apparatus, system version 2.0.1 (Applied Biosystems, Carlsbad Calif., U.S.A.). Total RNA was extracted from two 1-cm^2 leaf discs collected on the third main stem leaf (Robert et al., 2013) using the Qiagen RNeasy plant mini kit (Qiagen), following the supplier's instructions. RNA samples were treated with DNase I (Roche Diagnostics) to remove contaminant DNA and assessed for quality and quantity using a Nanodrop® ND-1000 spectrophotometer (NanoDrop Technologies, Wilmington Del., USA). First-strand cDNA was synthesized from 500 ng of total RNA using 4 units of Omniscript reverse transcriptase (Qiagen) and 1 μM of oligo-dT (15) nucleotides (Roche). PCR reactions contained 10 μl of Fast SYBR Green PCR Master Mix (Applied Biosystems), 2 μl of cDNA template, and 2.5 μl each of appropriate forward and reverse primers at 625 nM final concentration (Table 1). A no-template mixture control was included in each 96-well plate. Amplification rounds consisted of a 20-s denaturation step at 95° C., followed by 40 two-step cycles of 3 s at 95° C. and 30 s at 60° C. […]

[1] = test system: trypsin-like S1 Ser proteases; experiment: Protease assay in leaf crude extracts, Z-Arg-MCA substrate; format: in vivo, Nicotiana benthamiana; settings: 0.5 and 1 mM doses, seven days post-treatment
Description: Forty-two day-old N. benthamiana plants grown in greenhouse were used for the experiments. Each plant was sprayed evenly with 50 ml of 0.5 mM, 1 mM or 2 mM MeJA in water containing 0.1% (v/v) Triton X-100 (Sigma-Aldrich, Mississauga ON, Canada), or with 50 ml of 1 mM arachidonic acid (Girard et al., 2007) in the same solvent, and transferred for seven days in a Conviron growth chamber (Conviron, Winnipeg MB, Canada). Plants sprayed with 50 ml of 0.1% (v/v) Triton X-100 in water were used in parallel as negative controls to avoid confounding effects due to experimental conditions. […]
Whole leaf proteins were extracted from three 1-cm^2 leaf discs in 400 μl of ice-cold 50 mM Tris-HCl, pH 7.5, containing 150 mM NaCl, by disrupting the leaf samples with tungsten carbide beads (Qiagen, Mississauga ON, Canada) in a Mini-Beadbeater apparatus (BioSpec, Bartlesville Okla., USA). […] RuBisCO small subunit was detected using polyclonal IgG raised in rabbit against a synthetic small subunit peptide (Agrisera, Vännäs, Sweden) and alkaline phosphatase-conjugated goat anti-rabbit IgG as secondary antibodies (Sigma-Aldrich). RuBisCO large subunit was detected using polyclonal IgG raised in hen against a synthetic large subunit peptide (Agrisera) and alkaline phosphatase-conjugated goat anti-chicken IgG as secondary antibodies (Sigma-Aldrich). […]

Q: Which “VirE1 transcription versus control leaves” value (A. tumefaciens VirE1) does the source give for CC/C=C\C[C@H]1C(=O)CC[C@@H]1CC(=O)OC [MeJA, methyl jasmonate] here?
A: Its value is “no positive effect”.

Q: What about the trypsin-like activity [1] of the same molecule?
A: Its trypsin-like activity is “minimal or no increase in activity”.
